Laboratory results published in US20240148723A1, “MYCOBACTERIUM TUBERCULOSIS COMPOSITIONS AND METHODS” (priority 2021, published 2024).
≈ marks a conversion by molar mass, not a printed value. Where “and” joins values, the source holds several entries; their conditions need not be identical. Identical values can stand only once. Entries after “also recorded” stand apart in the source; their conditions may differ. Like-named read-outs stand apart in the source and are kept apart here.

Assays:
[1] = test system: M. tuberculosis H37Ra; assay: microbe, parasite or virus in culture; assay type: cell-based, Mycobacterium tuberculosis; conditions: for MIC: Mycobacterium tuberculosis, H37RA
[2] = test system: M. tuberculosis H37Ra PZA^R #186; assay: microbe, parasite or virus in culture; assay type: cell-based; conditions: Mycobacterium tuberculosis, 504 h, pH 6.8, read-out: MIC of PZA
[3] = test system: H37Ra; assay: microbe, parasite or virus in culture; assay type: cell-based, Mycobacterium tuberculosis
[4] = test system: M. tuberculosis H37Ra; assay: microbe, parasite or virus in culture; assay type: cell-based, Mycobacterium tuberculosis; conditions: for MIC: Mycobacterium tuberculosis, H37RA; remark: listed apart in the source
[5] = test system: M. tuberculosis H37Ra (PZA^S); assay type: cell-based; conditions: test tubes, PZA-S1 medium, pH 6.8
[6] = test system: M. tuberculosis H37Ra PZA^R #98; assay: microbe, parasite or virus in culture; assay type: cell-based; conditions: Mycobacterium tuberculosis, 504 h, pH 6.8, read-out: MIC of PZA
[7] = test system: M. tuberculosis H37Ra PZA^R #6; assay: microbe, parasite or virus in culture; assay type: cell-based; conditions: Mycobacterium tuberculosis, 504 h, pH 6.8, read-out: MIC of PZA
[8] = test system: M. tuberculosis H37Ra; assay type: cell-based, Mycobacterium tuberculosis
[9] = test system: M. tuberculosis H37Ra PZA^R #78; assay: microbe, parasite or virus in culture; assay type: cell-based; conditions: Mycobacterium tuberculosis, 504 h, pH 6.8, read-out: MIC of PZA
[10] = test system: M. tuberculosis H37Ra PZA^R #106; assay: microbe, parasite or virus in culture; assay type: cell-based; conditions: Mycobacterium tuberculosis, 504 h, pH 6.8, read-out: MIC of PZA
[11] = test system: M. tuberculosis; assay type: cell-based, Mycobacterium tuberculosis; conditions: pH 6.8

## CC(=O)NC[C@H]1CN(c2ccc(N3CCOCC3)c(F)c2)C(=O)O1 [linezolid]
[1]; pH 6.8
  MIC: 2 µg/mL (≈ 5.93 µM)

## NC(=O)c1cnccn1 [PZA, Pyrazinamide]
[2]
  MIC: > 800 µg/mL
[3]
  Percentage of CFU to Z 0: 1.20% and 0.14% and 0.02% and 0.08%
[3]; Mycobacterium tuberculosis, H37RA, read-out: MIC of PZA
  MIC: 50 µg/mL
[4]
  MIC for PZA lower in acidic conditions (pH 6.5 and pH 6.0) than in neutral pH 7.0 conditions: 8 fold
[4]; pH 5.5, read-out: MIC for PZA
  MIC: < 12.5 µg/mL
[4]; pH 6, read-out: MIC for PZA
  MIC: 100 µg/mL (≈ 812 µM)
[4]; pH 7, read-out: MIC for PZA
  MIC: 25 µg/mL (≈ 203 µM)
[4]; pH 8, read-out: MIC for PZA
  MIC: 200 µg/mL (≈ 1620 µM)
[4]; read-out: MIC for PZA
  MIC: 200 µg/mL (≈ 1620 µM)
[4]; pH 5
  growth: −
[4]; pH 5.5
  growth: − and +
[4]; pH 6
  growth: + and −
[4]; pH 6.5
  growth: + and −
[4]; pH 7
  growth: + and −
[4]; pH 7.5
  growth: − and +
[4]; pH 8
  growth: − and +
[4]; pH 8.5
  growth: − and +
[5]
  concentration of PZA at which growth was inhibited: 200 µg/mL
[1]; 336 h, pH 6.8
  MIC: 200 µg/mL (≈ 1620 µM)
[1]; pH 6.8, read-out: MICs of PZA
  MIC: 100 to 200 µg/mL (≈ 812 to 1620 µM)
[1]; read-out: MIC of PZA
  MIC: 50 µg/mL
[1]; pH 6.8
  increase in MIC between 1/100 and 1/10 inoculum size dilutions: 2-8 fold
[6]
  MIC: > 800 µg/mL
[7]
  MIC: > 800 µg/mL
[8]; pH 6.6
  lawn formation of M. tuberculosis: no inhibition
[8]; pH 6.8
  growth inhibition, paper disk: small inhibition zone; also recorded: strong growth inhibition
  lawn formation of M. tuberculosis: inhibited lawn formation
[9]
  MIC: > 800 µg/mL
[10]
  MIC: > 800 µg/mL

## CCc1cc(C(N)=S)ccn1 [ethionamide]
[1]; pH 6.8
  MIC: 0.5 µg/mL (≈ 3.01 µM)

## CC[C@@H](CO)NCCN[C@@H](CC)CO [ethambutol]
[1]; 336 h, pH 6.8
  MIC: 2 µg/mL (≈ 9.79 µM)
[1]; pH 6.8
  MIC: 1.6 µg/mL (≈ 7.83 µM)

## COc1nc2ccc(Br)cc2cc1[C@@H](c1ccccc1)[C@@](O)(CCN(C)C)c1cccc2ccccc12 [bedaquiline]
[1]; pH 6.8
  MIC: 0.064 µg/mL (≈ 0.115 µM)

## CO[C@H]1/C=C/O[C@@]2(C)Oc3c(C)c(O)c4c(O)c(c(/C=N/N5CCN(C)CC5)c(O)c4c3C2=O)NC(=O)/C(C)=C\C=C\[C@H](C)[C@H](O)[C@@H](C)[C@@H](O)[C@@H](C)[C@H](OC(C)=O)[C@@H]1C [rifampin]
[1]; 336 h, pH 6.8
  MIC: 0.13 µg/mL (≈ 0.158 µM)
[1]; pH 6.8
  MIC: 0.06 µg/mL (≈ 0.0729 µM)

## [H]/N=C(/N)N[C@H]1[C@H](O)[C@@H](O)[C@H](O[C@@H]2O[C@@H](C)[C@](O)(C=O)[C@H]2O[C@@H]2O[C@@H](CO)[C@H](O)[C@@H](O)[C@@H]2NC)[C@@H](N/C(N)=N\[H])[C@@H]1O [streptomycin]
[1]; pH 6.8
  MIC: 0.25 µg/mL (≈ 0.43 µM)

## O=[N+]([O-])/C=C/c1cc2ccccc2[nH]1 [compound 150982]
[11]
  MIC in the media 7H9: ≥ 18.82 µg/mL
  MIC in the media L-Ala: 9.41 µg/mL (≈ 50 µM)
  MIC in the media SBA: 4.70 µg/mL (≈ 25 µM)
  MIC in the media SLac: 2.35 µg/mL (≈ 12.5 µM)

## CCN(CC)CCOc1ccc(C(=C(Cl)c2ccccc2)c2ccccc2)cc1.O=C(O)CC(O)(CC(=O)O)C(=O)O (mixture of isomers) [compound 35770]
[11]
  MIC in the media 7H9: ≥ 14.95 µg/mL
  MIC in the media L-Ala: 1.91 µg/mL
  MIC in the media SBA: 1.91 µg/mL
  MIC in the media SLac: 0.96 µg/mL

## CN1CCc2cc3c(c4c2C1Cc1ccccc1-4)OCO3.Cl (stereo not shown) [compound 785164]
[11]
  MIC in the media 7H9: ≥ 13.97 µg/mL
  MIC in the media L-Ala: 6.98 µg/mL
  MIC in the media SBA: 3.49 µg/mL
  MIC in the media SLac: 1.75 µg/mL

## O=[N+]([O-])c1cc([N+](=O)[O-])c2cccnc2c1O [compound 57103]
[11]
  MIC in the media 7H9: ≥ 23.52 µg/mL
  MIC in the media L-Ala: 0.75 µg/mL (≈ 3.19 µM)
  MIC in the media SBA: 0.75 µg/mL (≈ 3.19 µM)
  MIC in the media SLac: 0.75 µg/mL (≈ 3.19 µM)

## COC12C(COC(N)=O)C3=C(C(=O)C(C)=C(N)C3=O)N1CC1C2N1C (stereo not shown) [compound 56410]
[11]
  MIC in the media 7H9: ≥ 0.28 µg/mL
  MIC in the media L-Ala: 0.28 µg/mL (≈ 0.804 µM)
  MIC in the media SBA: 0.28 µg/mL (≈ 0.804 µM)
  MIC in the media SLac: 0.56 µg/mL (≈ 1.61 µM)

## COC(=O)c1cccc([N+](=O)[O-])c1 [compound 1327]
[11]
  MIC in the media 7H9: ≥ 72.48 µg/mL
  MIC in the media L-Ala: 9.06 µg/mL (≈ 50 µM)
  MIC in the media SBA: 4.53 µg/mL (≈ 25 µM)
  MIC in the media SLac: 2.27 µg/mL (≈ 12.5 µM)

## COC(=O)c1ccc(N)cc1O [compound 30263]
[11]
  MIC in the media 7H9: ≥ 4.18 µg/mL
  MIC in the media L-Ala: 1.05 µg/mL (≈ 6.28 µM)
  MIC in the media SBA: 4.18 µg/mL (≈ 25 µM)
  MIC in the media SLac: 1.05 µg/mL (≈ 6.28 µM)

## CCCOC(=O)c1ccc([N+](=O)[O-])cc1 [compound 406847]
[11]
  MIC in the media 7H9: ≥ 83.68 µg/mL
  MIC in the media L-Ala: 5.23 µg/mL (≈ 25 µM)
  MIC in the media SBA: 10.46 µg/mL (≈ 50 µM)
  MIC in the media SLac: 5.23 µg/mL (≈ 25 µM)

## NNC(=O)c1ccncc1 [isoniazid]
[1]; 336 h, pH 6.8
  MIC: 0.02 µg/mL (≈ 0.146 µM)
[1]; pH 6.8
  MIC: 0.06 µg/mL (≈ 0.438 µM)

## Oc1c(Cl)cc(Cl)c2cccnc12 [compound 3904]
[11]
  MIC in the media 7H9: ≥ 4 µg/mL
  MIC in the media L-Ala: 0.03 µg/mL (≈ 0.14 µM)
  MIC in the media SBA: 0.03 µg/mL (≈ 0.14 µM)
  MIC in the media SLac: 0.03 µg/mL (≈ 0.14 µM)

## COC(=O)c1cc([N+](=O)[O-])cc([N+](=O)[O-])c1 [compound 7317]
[11]
  MIC in the media 7H9: ≥ 90.44 µg/mL
  MIC in the media L-Ala: 11.31 µg/mL (≈ 50 µM)
  MIC in the media SBA: 5.65 µg/mL (≈ 25 µM)
  MIC in the media SLac: 5.65 µg/mL (≈ 25 µM)

## Nc1cc(Nc2ccc(Br)cc2)nc(N)n1 [compound 42135]
[11]
  MIC in the media 7H9: ≥ 28.01 µg/mL
  MIC in the media L-Ala: 7.00 µg/mL (≈ 25 µM)
  MIC in the media SBA: 14.01 µg/mL (≈ 50 µM)
  MIC in the media SLac: 3.50 µg/mL (≈ 12.5 µM)

## CC[C@@H](O)C[C@H]1CCC[C@@]2(C[C@@H]3OC(=O)/C=C/[C@@](C)(O)[C@@H](O)[C@H](C)[C@@H](O)[C@H](OC4CCC(N(C)C)C(C)O4)[C@@H](O)[C@](C)(O)CCCCC/C=C/[C@@H]4CC(C)(C)O[C@@]4(O)C[C@H](O2)[C@H]3C)O1 (stereo partly shown) [compound 76627]
[11]
  MIC in the media 7H9: ≥ 22.81 µg/mL
  MIC in the media L-Ala: 5.7 µg/mL (≈ 6.25 µM)
  MIC in the media SBA: 11.4 µg/mL (≈ 12.5 µM)
  MIC in the media SLac: 5.7 µg/mL (≈ 6.25 µM)

## COc1c(N2C[C@@H]3CCCN[C@@H]3C2)c(F)cc2c(=O)c(C(=O)O)cn(C3CC3)c12 [moxifloxacin]
[1]; pH 6.8
  MIC: 0.25 µg/mL (≈ 0.623 µM)
